Laboratory results from US20210045385A1, “PYRIDAZINONE-SUBSTITUTED KETOXIMES AS HERBICIDES” (FMC Corporation, priority 2018, published 2021).

Assays:
Assay type in all cases: in vivo
[1] = test system: ducksalad (Heteranhera limosa); experiment: Test B flooded paddy test, visual plant response rating; conditions: 250 g ai/ha, Flood, applied to paddy water, 2-leaf stage, evaluated after 13 to 15 days
Outline: (§1)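 At the two-leaf stage, seedlings received compound applied to paddy water flooded 3 cm above soil, a level sustained until assessment. Greenhouse incubation lasted 13 to 15 days before visual comparison with control plants.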

[2] = test system: rice (Oryza sativa); experiment: as above; conditions: 250 g ai/ha, Flood, applied to paddy water, 2-leaf stage, evaluated after 13 to 15 days
Outline: as §1

[3] = test system: sedge, umbrella (small-flower umbrella sedge, Cyperus difformis); experiment: as above; conditions: 250 g ai/ha, Flood, applied to paddy water, 2-leaf stage, evaluated after 13 to 15 days
Outline: as §1

[4] = test system: barnyardgrass (Echinochloa crus-galli); experiment: as above; conditions: 250 g ai/ha, Flood, applied to paddy water, 2-leaf stage, evaluated after 13 to 15 days
Outline: as §1

[5] = test system: pigweed (Amaranthus retroflexus); experiment: Test A preemergence, visual plant response rating; conditions: for Pigweed plant response rating: 125 g ai/ha, preemergence, 0 to 100 scale, 0 no effect, 100 complete control; for Pigweed plant response rating (0 to 100 scale): 500 g ai/ha Preemergence, approx. 10 days
Outline: (§2)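 Ratings 0–100 (100 = complete control), visual, vs untreated controls at ~10 days. Application pre- or postemergence; solvent mixture with surfactant; loam/sand medium.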

[6] = test system: Italian ryegrass (Lolium multiflorum); experiment: Test A preemergence, visual plant response rating; conditions: for Ryegrass, Italian plant response rating: 125 g ai/ha, preemergence, 0 to 100 scale, 0 no effect, 100 complete control; for Ryegrass, Italian plant response rating (0 to 100 scale): 500 g ai/ha Preemergence, approx. 10 days
Outline: as §2

[7] = test system: foxtail, giant (giant foxtail, Setaria faberii); experiment: Test A preemergence, visual plant response rating; conditions: for Foxtail, Giant plant response rating: 125 g ai/ha, preemergence, 0 to 100 scale, 0 no effect, 100 complete control; for Foxtail, Giant plant response rating (0 to 100 scale): 500 g ai/ha Preemergence, approx. 10 days
Outline: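 Formulated in a non-phytotoxic solvent mixture including surfactant, each test chemical was sprayed onto the soil surface after sowing, or onto seedlings 2 to 10 cm high. Roughly 10 days later, plants were compared with untreated controls and rated for injury from 0 (no effect) to 100 (complete control).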

[8] = test system: kochia (Kochia scoparia); experiment: Test A preemergence, visual plant response rating; conditions: for Kochia plant response rating: 125 g ai/ha, preemergence, 0 to 100 scale, 0 no effect, 100 complete control; for Kochia plant response rating (0 to 100 scale): 500 g ai/ha Preemergence, approx. 10 days
Outline: as §2

[9] = test system: ragweed (common ragweed, Ambrosia elatior); experiment: Test A preemergence, visual plant response rating; conditions: for Ragweed plant response rating: 125 g ai/ha, preemergence, 0 to 100 scale, 0 no effect, 100 complete control; for Ragweed plant response rating (0 to 100 scale): 500 g ai/ha Preemergence, approx. 10 days
Outline: as §2

[10] = test system: barnyardgrass (Echinochloa crus-galli); experiment: Test A preemergence, visual plant response rating; conditions: for Barnyardgrass plant response rating: 125 g ai/ha, preemergence, 0 to 100 scale, 0 no effect, 100 complete control; for Barnyardgrass plant response rating (0 to 100 scale): 500 g ai/ha Preemergence, approx. 10 days
Outline: as §2

[11] = test system: galium (catchweed bedstraw, Galium aparine); experiment: Test A postemergence, visual plant response rating; conditions: for Galium plant response rating (0 to 100 scale): 500 g ai/ha, postemergence, 0 is no effect, 100 is complete control; for Galium plant response rating: Postemergence, 125 g ai/ha, 0 to 100 scale (0 no effect, 100 complete control)
Description: (§3) Seeds of plant species selected from barnyardgrass (Echinochloa crus-galli), kochia (Kochia scoparia), ragweed (common ragweed, Ambrosia elatior), Italian ryegrass (Lolium multiflorum), foxtail, giant (giant foxtail, Setaria faberii), foxtail, green (green foxtail, Setaria viridis), and pigweed (Amaranthus retroflexus) were planted into a blend of loam soil and sand and treated preemergence with a directed soil spray using test chemicals formulated in a non-phytotoxic solvent mixture which included a surfactant.
(§4) At the same time, plants selected from these weed species and also wheat (Triticum aestivum), corn (Zea mays), blackgrass (Alopecurus myosuroides), and galium (catchweed bedstraw, Galium aparine) were planted in pots containing the same blend of loam soil and sand and treated with postemergence applications of test chemicals formulated in the same manner. Plants ranged in height from 2 to 10 cm and were in the one- to two-leaf stage for the postemergence treatment. Treated plants and untreated controls were maintained in a greenhouse for approximately 10 days, after which time all treated plants were compared to untreated controls and visually evaluated for injury. Plant response ratings, summarized in Table A, are based on a 0 to 100 scale where 0 is no effect and 100 is complete control. A dash (-) response means no test result.

[12] = test system: pigweed (Amaranthus retroflexus); experiment: Test A postemergence, visual plant response rating; conditions: for Pigweed plant response rating (0 to 100 scale): 500 g ai/ha, postemergence, 0 is no effect, 100 is complete control; for Pigweed plant response rating: Postemergence, 125 g ai/ha, 0 to 100 scale (0 no effect, 100 complete control)
Description: as §3, §4

[13] = test system: Italian ryegrass (Lolium multiflorum); experiment: Test A postemergence, visual plant response rating; conditions: for Ryegrass, Italian plant response rating: 125 g ai/ha, 0 to 100 scale (0 no effect, 100 complete control)
Description: as §3, §4

[14] = test system: foxtail, giant (giant foxtail, Setaria faberii); experiment: Test A postemergence, visual plant response rating; conditions: for Foxtail, Giant plant response rating (0 to 100 scale): 500 g ai/ha, postemergence, 0 is no effect, 100 is complete control; for Foxtail, Giant plant response rating: Postemergence, 125 g ai/ha, 0 to 100 scale (0 no effect, 100 complete control)
Description: as §3, §4

[15] = test system: wheat (Triticum aestivum); experiment: Test A postemergence, visual plant response rating; conditions: for Wheat plant response rating: 0 to 100 scale (0 no effect, 100 complete control)
Description: as §3, §4

[16] = test system: blackgrass (Alopecurus myosuroides); experiment: Test A postemergence, visual plant response rating; conditions: for Blackgrass plant response rating (0 to 100 scale): 500 g ai/ha, postemergence, 0 is no effect, 100 is complete control; for Blackgrass plant response rating: Postemergence, 125 g ai/ha, 0 to 100 scale (0 no effect, 100 complete control)
Description: as §3, §4

[17] = test system: kochia (Kochia scoparia); experiment: Test A postemergence, visual plant response rating; conditions: for Kochia plant response rating (0 to 100 scale): 500 g ai/ha, postemergence, 0 is no effect, 100 is complete control; for Kochia plant response rating: Postemergence, 125 g ai/ha, 0 to 100 scale (0 no effect, 100 complete control)
Description: as §3, §4

[18] = test system: ragweed (common ragweed, Ambrosia elatior); experiment: Test A postemergence, visual plant response rating; conditions: for Ragweed plant response rating (0 to 100 scale): 500 g ai/ha, postemergence, 0 is no effect, 100 is complete control; for Ragweed plant response rating: Postemergence, 125 g ai/ha, 0 to 100 scale (0 no effect, 100 complete control)
Description: as §3, §4

[19] = test system: corn (Zea mays); experiment: Test A postemergence, visual plant response rating; conditions: for Corn plant response rating (0 to 100 scale): 500 g ai/ha, postemergence, 0 is no effect, 100 is complete control; for Corn plant response rating: Postemergence, 125 g ai/ha, 0 to 100 scale (0 no effect, 100 complete control)
Description: as §3, §4

[20] = test system: barnyardgrass (Echinochloa crus-galli); experiment: Test A postemergence, visual plant response rating; conditions: for Barnyardgrass plant response rating (0 to 100 scale): 500 g ai/ha, postemergence, 0 is no effect, 100 is complete control; for Barnyardgrass plant response rating: Postemergence, 125 g ai/ha, 0 to 100 scale (0 no effect, 100 complete control)
Description: as §3, §4

[21] = 500 g ai/ha, postemergence, 0 is no effect, 100 is complete control

Row | SMILES | Plant response rating, Ducksalad (0 to 100 scale, 0 is no effect, 100 is complete control) [1] | Plant response rating, Rice (0 to 100 scale, 0 is no effect, 100 is complete control) [2] | Plant response rating, Sedge, Umbrella (0 to 100 scale, 0 is no effect, 100 is complete control) [3] | Plant response rating, Barnyardgrass (0 to 100 scale, 0 is no effect, 100 is complete control) [4] | Pigweed plant response rating [5] | Pigweed plant response rating (0 to 100 scale) [5] | Ryegrass, Italian plant response rating [6] | Ryegrass, Italian plant response rating (0 to 100 scale) [6] | Foxtail, Giant plant response rating [7] | Foxtail, Giant plant response rating (0 to 100 scale) [7] | Kochia plant response rating [8] | Kochia plant response rating (0 to 100 scale) [8] | Ragweed plant response rating [9] | Ragweed plant response rating (0 to 100 scale) [9] | Barnyardgrass plant response rating [10] | Barnyardgrass plant response rating (0 to 100 scale) [10] | Galium plant response rating (0 to 100 scale) [11] | Galium plant response rating [11] | Pigweed plant response rating (0 to 100 scale) [12] | Pigweed plant response rating [12] | further results
1 | CON=C(c1ccc(C)s1)c1c(O)c(C)nn(C)c1=O (mixture of isomers) [Compound 144] | 0 | 0 | 0 | 0 | 0 | 0 | 0 | 0 | 0 | 0 | 0 | 0 | 0 | 0 | 0 | 0 | 30 | 0 | 10 | 0 | Ryegrass, Italian plant response rating (0 to 100 scale) [13, 21]: 0; Ryegrass, Italian plant response rating (0 to 100 scale) ([13]; Postemergence, rate not given, approx. 10 days): 0; Foxtail, Giant plant response rating (0 to 100 scale) [14]: 0; Foxtail, Giant plant response rating [14]: 0; Wheat plant response rating ([15]; Postemergence, 500 g ai/ha): 0; Wheat plant response rating (0 to 100 scale) ([15]; Postemergence, approx. 10 days): 0; Blackgrass plant response rating (0 to 100 scale) [16]: 0; Blackgrass plant response rating [16]: 0; Kochia plant response rating (0 to 100 scale) [17]: 0; Kochia plant response rating [17]: 0; Ragweed plant response rating (0 to 100 scale) [18]: 30; Ragweed plant response rating [18]: 0; Corn plant response rating (0 to 100 scale) [19]: 0; Corn plant response rating [19]: 0; Barnyardgrass plant response rating (0 to 100 scale) [20]: 0; Barnyardgrass plant response rating [20]: 0
2 | CON=C(c1c(O)c(C)nn(C)c1=O)c1csc2ccccc12 (single isomer, unassigned) [Compound 45] | 0 | 0 | 0 | 0 | 0 | 0 | 0 | 10 | 0 | 0 | 0 | 50 | 10 | 40 | 0 | 0 | 70 | 50 | 10 | 0 | Ryegrass, Italian plant response rating (0 to 100 scale) [13, 21]: 20; Ryegrass, Italian plant response rating ([13]; Postemergence): 0; Foxtail, Giant plant response rating (0 to 100 scale) [14]: 0; Foxtail, Giant plant response rating [14]: 0; Wheat plant response rating (0 to 100 scale) [15, 21]: 0; Wheat plant response rating ([15]; Postemergence, 125 g ai/ha): 0; Blackgrass plant response rating (0 to 100 scale) [16]: 20; Blackgrass plant response rating [16]: 0; Kochia plant response rating (0 to 100 scale) [17]: 0; Kochia plant response rating [17]: 0; Ragweed plant response rating (0 to 100 scale) [18]: 70; Ragweed plant response rating [18]: 30; Corn plant response rating (0 to 100 scale) [19]: 0; Corn plant response rating [19]: 0; Barnyardgrass plant response rating (0 to 100 scale) [20]: 0; Barnyardgrass plant response rating [20]: 0
3 | CON=C(c1c(O)c(C)nn(C)c1=O)c1csc2ccccc12 (single isomer, unassigned) [Compound 46] | 0 | 0 | 0 | 0 | 0 | 10 | 0 | 0 | 0 | 0 | 0 | 30 | 20 | 50 | 0 | 0 | 60 | 30 | 20 | 10 | Ryegrass, Italian plant response rating (0 to 100 scale) [13, 21]: 10; Ryegrass, Italian plant response rating ([13]; Postemergence): 10; Foxtail, Giant plant response rating (0 to 100 scale) [14]: 0; Foxtail, Giant plant response rating [14]: 0; Wheat plant response rating (0 to 100 scale) [15, 21]: 0; Wheat plant response rating ([15]; Postemergence, 125 g ai/ha): 0; Blackgrass plant response rating (0 to 100 scale) [16]: 0; Blackgrass plant response rating [16]: 0; Kochia plant response rating (0 to 100 scale) [17]: 0; Kochia plant response rating [17]: 0; Ragweed plant response rating (0 to 100 scale) [18]: 70; Ragweed plant response rating [18]: 40; Corn plant response rating (0 to 100 scale) [19]: 0; Corn plant response rating [19]: 0; Barnyardgrass plant response rating (0 to 100 scale) [20]: 0; Barnyardgrass plant response rating [20]: 0
4 | CON=C(c1c(O)c(C)nn(C)c1=O)c1cccc2ccsc12 (single isomer, unassigned) [Compound 47] | 0 | 0 | 0 | 0 | 20 | 80 | 10 | 70 | 20 | 90 | 0 | 90 | 100 | 100 | 0 | 50 | 100 | 70 | 90 | 60 | Ryegrass, Italian plant response rating (0 to 100 scale) [13, 21]: 70; Ryegrass, Italian plant response rating ([13]; Postemergence): 0; Foxtail, Giant plant response rating (0 to 100 scale) [14]: 70; Foxtail, Giant plant response rating [14]: 30; Wheat plant response rating (0 to 100 scale) [15, 21]: 0; Wheat plant response rating ([15]; Postemergence, 125 g ai/ha): 0; Blackgrass plant response rating (0 to 100 scale) [16]: 30; Blackgrass plant response rating [16]: 20; Kochia plant response rating (0 to 100 scale) [17]: 30; Kochia plant response rating [17]: 10; Ragweed plant response rating (0 to 100 scale) [18]: 90; Ragweed plant response rating [18]: 80; Corn plant response rating (0 to 100 scale) [19]: 20; Corn plant response rating [19]: 0; Barnyardgrass plant response rating (0 to 100 scale) [20]: 20; Barnyardgrass plant response rating [20]: 30
